# Reference: article PMC10449633 (Nature Chemical Biology, 2023)
# Where two headings read alike, the source gives them in different places. Numbered stars: 1 amine (or outer) side, 2 acyl side, 3 side chain; on linkers, the order of the positions; unused ones are H or OH. Square brackets hold non-standard residues; d marks the D form. Peptide text beside a SMILES is read from it. ξ: configuration not given here. X1 = CN(C(Cc1cn(Cc2ccc(Br)cc2)c2ccccc12)C(=O)[*:2])[*:1]; ξAla(CF3) = NC(CC(F)(F)F)C(=O)O; X2 = N#CCCC(O[*:1])C(=O)[*:2]; NMeL = CN[CH](CC(C)C)C(=O)O; NMeA = CN[CH](C)C(=O)O
# Biological target: T1, Sec61 (Homo sapiens, UniProt P61619)
# T1 construct: endogenous in cells
# T1 sequence (P61619 whole entry): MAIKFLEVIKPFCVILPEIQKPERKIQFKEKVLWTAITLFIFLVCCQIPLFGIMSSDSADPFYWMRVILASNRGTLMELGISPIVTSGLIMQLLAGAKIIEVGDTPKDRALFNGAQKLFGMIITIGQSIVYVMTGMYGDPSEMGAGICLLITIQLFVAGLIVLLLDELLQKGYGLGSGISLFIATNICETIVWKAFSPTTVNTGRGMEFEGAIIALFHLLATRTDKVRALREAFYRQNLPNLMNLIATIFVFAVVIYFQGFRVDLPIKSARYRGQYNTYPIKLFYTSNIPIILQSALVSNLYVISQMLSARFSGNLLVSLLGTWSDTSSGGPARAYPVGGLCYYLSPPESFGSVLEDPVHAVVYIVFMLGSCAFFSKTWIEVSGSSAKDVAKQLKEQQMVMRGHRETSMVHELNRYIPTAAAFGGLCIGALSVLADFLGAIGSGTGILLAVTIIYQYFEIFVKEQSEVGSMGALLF
# T1 sequence (P60059 whole entry, further chain): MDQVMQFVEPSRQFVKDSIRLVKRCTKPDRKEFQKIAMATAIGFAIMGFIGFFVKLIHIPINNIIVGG
# T1 sequence (P60468 whole entry, further chain): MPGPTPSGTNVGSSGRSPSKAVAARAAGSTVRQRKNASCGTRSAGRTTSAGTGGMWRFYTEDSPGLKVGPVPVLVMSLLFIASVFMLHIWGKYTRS
# Assay: signal peptide-GLuc (SP-GLuc) reporter panel, 89 constructs
# Format: cell-based
# Text: The heat map depicts IC50 values calculated from each SP-GLuc dose–response curve. d, Arthritis was induced in BALB/c mice with antibodies specific for type II collagen (mAb) on day 0 and endotoxin on day 3. On day 4, when the disease was present in all animals, mice were randomized and treated for 2 weeks with thrice weekly (QODx3) or weekly (QW) intravenous administration of vehicle or KZR-8445 or intraperitoneal administration of dexamethasone. Clinical scores (0–4 per paw; n = 10 per group) and body weights were followed until day 14. Data are presented as mean values ± s.d. mAb, monoclonal antibody. Source data
# To investigate the effects of KZR-8445 on secretory and membrane protein biogenesis and to establish Sec61α as the relevant target, we quantified the secretion of a doxycycline-inducible Gaussia luciferase (GLuc) reporter fused to the C-terminus of two full-length pro-inflammatory cytokines, interleukin-2 (IL-2) (which contains a cleavable signal peptide) and tumor necrosis factor-alpha (TNFα) (which contains an N-terminal transmembrane anchor). […] KZR-8445 is structurally related to CT8, which discriminates among Sec61 clients based largely on their N-terminal signal peptide. […] We also directly compared KZR-8445 to mycolactone A/B, a structurally distinct and relatively client-nonselective Sec61 inhibitor[8],[25], for their ability to discriminate between vascular cell adhesion molecule (VCAM) and preprolactin (pPL) signal peptides.
structure (smiles),measurement,setting,value
CC(C)CC1NC(=O)C(Cc2cn(Cc3ccc(Br)cc3)c3ccccc23)N(C)C(=O)C(CC(F)(F)F)NC(=O)C(CC(C)C)N(C)C(=O)C(CC(F)(F)F)NC(=O)C(CCC#N)OC(=O)C(C)N(C)C1=O (stereo not drawn) [KZR-8445] (cyclo([X1]L[NMeA][X2][ξAla(CF3)][NMeL][ξAla(CF3)]); configuration not given here),IC50,"89 signal peptide-GLuc reporters, 24 h, read-out: highest IC50 in the panel",> 25000 nM
same,IC50,"89 signal peptide-GLuc reporters, 24 h, read-out: lowest IC50 in the panel",5 nM
same,IC50,"89 signal peptide-GLuc reporters, 24 h, read-out: median IC50 of the panel",366 nM
same,IC50,"ADPGK SP-GLuc, read-out: log10(IC50 8445) (converted)",540 nM
same,IC50,"ANGPTL3 SP-GLuc, read-out: log10(IC50 8445) (converted)",49.4 nM
same,IC50,"APOC1 SP-GLuc, read-out: log10(IC50 8445) (converted)",135 nM
same,IC50,"APP SP-GLuc, read-out: log10(IC50 8445) (converted)",449 nM
same,IC50,"AXL SP-GLuc, read-out: log10(IC50 8445) (converted)",13.8 nM
same,IC50,"BCAN SP-GLuc, read-out: log10(IC50 8445) (converted)",142 nM
same,IC50,"C1S SP-GLuc, read-out: log10(IC50 8445) (converted)",383 nM
same,IC50,"CALCA SP-GLuc, read-out: log10(IC50 8445) (converted)",721 nM
same,IC50,"CALCB SP-GLuc, read-out: log10(IC50 8445) (converted)",972 nM
same,IC50,"CD40 SP-GLuc, read-out: log10(IC50 8445) (converted)",11300 nM
same,IC50,"CD47 SP-GLuc, read-out: log10(IC50 8445) (converted)",373 nM
same,IC50,"CD96 SP-GLuc, read-out: log10(IC50 8445) (converted)",29.2 nM
same,IC50,"CD274 SP-GLuc, read-out: log10(IC50 8445) (converted)",93.3 nM
same,IC50,"CDH1 SP-GLuc, read-out: log10(IC50 8445) (converted)",811 nM
same,IC50,"CDH2 SP-GLuc, read-out: log10(IC50 8445) (converted)",15.5 nM
same,IC50,"CDH5 SP-GLuc, read-out: log10(IC50 8445) (converted)",76 nM
same,IC50,"CNPY2 SP-GLuc, read-out: log10(IC50 8445) (converted)",394 nM
same,IC50,"CPD SP-GLuc, read-out: log10(IC50 8445) (converted)",694 nM
same,IC50,"CR1L SP-GLuc, read-out: log10(IC50 8445) (converted)",61.3 nM
same,IC50,"CSF2RB SP-GLuc, read-out: log10(IC50 8445) (converted)",652 nM
same,IC50,"CTLA4 SP-GLuc, read-out: log10(IC50 8445) (converted)",343 nM
same,IC50,"DDRGK1 SP-GLuc, read-out: log10(IC50 8445) (converted)",1850 nM
same,IC50,"DMKN SP-GLuc, read-out: log10(IC50 8445) (converted)",2630 nM
same,IC50,"DNAJB11 SP-GLuc, read-out: log10(IC50 8445) (converted)",4360 nM
same,IC50,"ERBB2 SP-GLuc, read-out: log10(IC50 8445) (converted)",536 nM
same,IC50,"F3 SP-GLuc, read-out: log10(IC50 8445) (converted)",162 nM
same,IC50,"FGF23 SP-GLuc, read-out: log10(IC50 8445) (converted)",28.2 nM
same,IC50,"FLT3 SP-GLuc, read-out: log10(IC50 8445) (converted)",360 nM
same,IC50,"FNDC10 SP-GLuc, read-out: log10(IC50 8445) (converted)",726 nM
same,IC50,"FURIN SP-GLuc, read-out: log10(IC50 8445) (converted)",4740 nM
same,IC50,"GAS6 SP-GLuc, read-out: log10(IC50 8445) (converted)",118 nM
same,IC50,"HJV SP-GLuc, read-out: log10(IC50 8445) (converted)",427 nM
same,IC50,"HLA-G SP-GLuc, read-out: log10(IC50 8445) (converted)",39.2 nM
same,IC50,"HSPA13 SP-GLuc, read-out: log10(IC50 8445) (converted)",1110 nM
same,IC50,"IGF1R SP-GLuc, read-out: log10(IC50 8445) (converted)",814 nM
same,IC50,"IL1RAP SP-GLuc, read-out: log10(IC50 8445) (converted)",101 nM
same,IC50,"IL4R SP-GLuc, read-out: log10(IC50 8445) (converted)",32 nM
same,IC50,"IL4 SP-GLuc, read-out: log10(IC50 8445) (converted)",359 nM
same,IC50,"IL5RA SP-GLuc, read-out: log10(IC50 8445) (converted)",1310 nM
same,IC50,"IL5 SP-GLuc, read-out: log10(IC50 8445) (converted)",1300 nM
same,IC50,"IL6R SP-GLuc, read-out: log10(IC50 8445) (converted)",92.3 nM
same,IC50,"IL6 SP-GLuc, read-out: log10(IC50 8445) (converted)",155 nM
same,IC50,"IL6ST SP-GLuc, read-out: log10(IC50 8445) (converted)",56.5 nM
same,IC50,"IL7 SP-GLuc, read-out: log10(IC50 8445) (converted)",5.23 nM
same,IC50,"IL10 SP-GLuc, read-out: log10(IC50 8445) (converted)",434 nM
